The target in one data set is Coagulation factor X (Homo sapiens, UniProt P00742). Briefly: In vitro inhibitory activity against coagulation factor X.
The next data set addresses Prothrombin (Homo sapiens, UniProt P00734). Briefly: In vitro inhibitory activity against thrombin.
The next data set has as its target Serine protease 1 (Homo sapiens, UniProt P07477). The experiment in a line: In vitro inhibitory activity against trypsin.
Data set [1] in a line: Oral bioavailability in rat. The class given is ADME, organism-based. The note with it: in vivo.
In data set [2] the test system is Oryctolagus cuniculus. The experiment in a line: Antithrombotic effect (Inhibition of thrombus formation) in a rabbit deep vein thrombosis model at 1.1 uM plasma concentration following iv administration. The class given is functional.
Data set [3] deals with Oryctolagus cuniculus. The experiment in a line: Antithrombotic effect (Inhibition of thrombus formation) in a rabbit deep vein thrombosis model at 0.132 uM plasma concentration following iv administration. The class given is functional.

Chain of Serine protease 1 (P07477 whole entry): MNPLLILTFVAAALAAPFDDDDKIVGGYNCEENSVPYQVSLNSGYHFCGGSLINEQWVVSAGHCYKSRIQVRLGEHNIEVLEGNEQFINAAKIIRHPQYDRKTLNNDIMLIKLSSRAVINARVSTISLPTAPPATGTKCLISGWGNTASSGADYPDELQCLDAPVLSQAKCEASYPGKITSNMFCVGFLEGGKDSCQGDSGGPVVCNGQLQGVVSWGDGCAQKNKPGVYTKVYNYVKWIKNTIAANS
Chain of Coagulation factor X (P00742 41-179 limits assumed): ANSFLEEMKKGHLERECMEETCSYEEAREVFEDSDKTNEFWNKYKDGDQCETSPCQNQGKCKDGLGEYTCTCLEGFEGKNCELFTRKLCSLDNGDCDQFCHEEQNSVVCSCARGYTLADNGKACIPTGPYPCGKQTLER
Chain of Coagulation factor X (P00742 235-488 limits assumed): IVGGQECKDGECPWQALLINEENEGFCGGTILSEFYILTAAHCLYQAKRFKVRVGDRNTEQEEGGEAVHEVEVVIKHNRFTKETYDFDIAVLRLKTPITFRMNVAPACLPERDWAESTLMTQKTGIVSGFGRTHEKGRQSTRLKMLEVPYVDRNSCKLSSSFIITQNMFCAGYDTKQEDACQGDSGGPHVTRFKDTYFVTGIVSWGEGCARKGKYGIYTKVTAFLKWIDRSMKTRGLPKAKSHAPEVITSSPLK

For orientation: IC50 means the concentration needed to halve the response being measured. Read a high IC50 as a need for much substance. As to `N=C(N)c1cccc(OCCC(=O)Nc2ccc(-c3ccccc3S(N)(=O)=O)cc2)c1`, the IC50 against Coagulation factor X is 6.4 nM; on Prothrombin it was greater than 10000 nM; against Serine protease 1 it was 2570 nM.

Take `N=C(N)c1cccc(OCC(=O)Nc2ccc(C(=O)N3CCCC3)cc2)c1`: the results for the IC50 against Coagulation factor X, on Prothrombin and against Serine protease 1 were 66 nM, greater than 10000 nM and 2700 nM, respectively.

In the case of `N=C(N)c1cccc(OCC(=O)Nc2ccc(C(=O)N3CCCCC3)cc2)c1`, the IC50 at Prothrombin and at Serine protease 1 was greater than 10000 nM each time.

`N=C(N)c1cccc(OCC(=O)Nc2ccc(C(=O)N3CC=CC3)cc2)c1`: the results for the half-maximal inhibitory concentration (IC50) against Coagulation factor X, at Prothrombin and on Serine protease 1 were 6.3 nM, greater than 10000 nM and 875 nM, respectively.

On to `N=C(N)c1cccc(OCC(=O)Nc2ccc(C(=O)N3CCC3)cc2)c1`, for which the IC50 was 227 nM against Coagulation factor X, greater than 10000 nM at Prothrombin and 2050 nM at Serine protease 1.

In the case of `N=C(N)c1cccc(OC(C(=O)Nc2ccc(-c3ccccc3S(N)(=O)=O)cc2F)c2ccccc2)c1` (centres undefined), the figures for the IC50 against Prothrombin and at Serine protease 1 were greater than 10000 nM and 9820 nM, respectively.

Turning to `CN1CCN(C(=O)c2ccc(NC(=O)COc3cccc(C(=N)N)c3)cc2)CC1`, the concentration for half-maximal inhibition (IC50) against Coagulation factor X, on Prothrombin and against Serine protease 1 was greater than 10000 nM each time.

Turning to `N=C(N)c1ccc(O)c(OCC(=O)Nc2ccc(-c3ccccc3S(N)(=O)=O)cc2)c1`, the IC50 at Coagulation factor X is 2.2 nM; against Prothrombin it was greater than 10000 nM; against Serine protease 1, 2290 nM.

With `CC(C)(C)OC(=O)C1CCCN1C(=O)c1ccc(NC(=O)COc2cccc(C(=N)N)c2)cc1` (centres undefined), the IC50 against Coagulation factor X was 2930 nM; against Prothrombin, greater than 10000 nM; on Serine protease 1, 6640 nM.

Regarding `N=C(N)c1cccc(OC(C(=O)Nc2ccc(C(=O)N3CCCC3)cc2Br)c2ccccc2)c1` (centres undefined), the IC50 against Coagulation factor X was 0.99 nM; against Prothrombin it was greater than 10000 nM; against Serine protease 1, 521 nM.

Consider `N=C(N)c1cccc(OC(C(=O)Nc2ccc(-n3ccc(C(F)(F)F)n3)cc2)c2ccccc2)c1` (centres undefined), for which the IC50 on Coagulation factor X was 170 nM; on Prothrombin it was greater than 10000 nM; against Serine protease 1, greater than 10000 nM.

With `N=C(N)c1cccc(OCC(=O)Nc2ccc(C(=O)N3CCCCCC3)cc2)c1`, the IC50 against Coagulation factor X was 1190 nM; against Prothrombin, greater than 10000 nM; on Serine protease 1 it was greater than 10000 nM.

For orientation: bioavailability means dose-corrected exposure relative to a reference, in per cent. A low value points to poor availability. What is called Inhibition is the percentage by which the read-out fell short of the control. Regarding `N=C(N)c1cccc(OC(C(=O)Nc2ccc(C(=O)N3CCCC3)cc2)c2ccccc2)c1` (centres undefined), in data set [1], the bioavailability was found to be 5%. Also, the IC50 against Coagulation factor X worked out at 0.18 nM; against Serine protease 1 it was 174 nM. In the data set with Oryctolagus cuniculus [2], this compound gave an Inhibition of 81%.

With `N=C(N)c1cccc(OCC(=O)Nc2ccc(C(=O)N3CCCC3C(=O)O)cc2)c1` (centres undefined), the IC50 against Coagulation factor X, at Prothrombin and at Serine protease 1 was greater than 10000 nM each time.

Turning to `N=C(N)c1cccc(OC(C(=O)Nc2ccc(-c3ccccc3S(N)(=O)=O)cc2)c2ccccc2)c1` (centres undefined), the bioavailability in data set [1] came out at 5%. Moreover, the IC50 on Coagulation factor X was 0.55 nM; against Prothrombin, greater than 10000 nM; against Serine protease 1, 1250 nM. Also, the Inhibition in the data set with Oryctolagus cuniculus [3] is 56%.

`N=C(N)c1cccc(OC(C(=O)Nc2cc(Cl)c(-n3cccc3)cc2Cl)c2ccccc2)c1` (centres undefined): the IC50 against Coagulation factor X was found to be 93 nM; against Prothrombin, 4090 nM; against Serine protease 1, 8780 nM.

Consider `N=C(N)c1cccc(OCC(=O)Nc2ccc(-c3ccccc3S(N)(=O)=O)cc2)c1`, for which the figures for the concentration for half-maximal inhibition (IC50) on Coagulation factor X, against Prothrombin and at Serine protease 1 were 21 nM, greater than 10000 nM and 3370 nM, respectively.

As for `N=C(N)c1ccc(O)c(OCC(=O)Nc2ccc(C(=O)N3CCCC3)cc2)c1`, the half-maximal inhibitory concentration (IC50) on Coagulation factor X is 0.7 nM; against Prothrombin it was greater than 10000 nM; against Serine protease 1, 283 nM.

`N=C(N)c1cccc(OC(C(=O)Nc2ccc(-n3cnc(Cl)c3Cl)cc2)c2ccccc2)c1` (centres undefined): the IC50 against Coagulation factor X turned out to be 14 nM; against Serine protease 1 it was 5330 nM.

Consider `N=C(N)c1cccc(OC(C(=O)Nc2ccc(-c3ccccc3S(N)(=O)=O)cc2Br)c2ccccc2)c1` (centres undefined), for which the IC50 is 3.2 nM against Coagulation factor X, 8640 nM against Prothrombin and 4000 nM at Serine protease 1.

As to `N=C(N)c1cccc(OCC(=O)Nc2ccc(C(=O)N3CCOCC3)cc2)c1`, the half-inhibitory concentration (IC50) at Coagulation factor X was 1120 nM; against Prothrombin it was greater than 10000 nM; against Serine protease 1 it was greater than 10000 nM.

Consider `N=C(N)c1cccc(OC(C(=O)Nc2ccc(N3CCOCC3)c(F)c2)c2ccccc2)c1` (centres undefined), for which the IC50 against Coagulation factor X was 4.4 nM.

Values taken from ChEMBL document CHEMBL1133928, “Design and synthesis of glycolic and mandelic acid derivatives as factor Xa inhibitors” (Bioorg Med Chem Lett, 2001).
